According to paper PMC3005981 (Basic & clinical pharmacology & toxicology, 2010):

Experiments:
[1] = test system: CYP2D6; assay: Inhibition of methadone N-demethylation; details: human, microsomes, Inhibition of (R)- and (S)-EDDP formation, HLM with high CYP2D6 activity
[2] = test system: CYP1A2; assay: Methadone metabolism in cDNA-expressed CYP Supersomes, with abundance scaling
[3] = test system: CYP2A6; assay: as above
[4] = test system: CYP2B6; assay: as above
[5] = test system: CYP2C8; assay: as above
[6] = test system: CYP2C9*1; assay: as above
[7] = test system: CYP2C18; assay: as above; details: Abundance from Immunquantitation
[8] = test system: CYP2C19; assay: as above
[9] = test system: CYP2D6*1; assay: as above
[10] = test system: CYP3A4; assay: as above
[11] = test system: CYP3A (testosterone 6β-hydroxylation); assay: Correlation of EDDP formation with CYP-specific activity in 15 phenotyped HLMs; details: 15 HLMs; 750 ng/ml methadone, 0.5 mg/ml protein, 30 min; p<0.05
[12] = target: CYP3A4 (Homo sapiens, UniProt P08684); assay: in vitro; details: recombinant enzyme, Supersome
Sequence of CYP3A4 (Homo sapiens, UniProt P08684) (P08684 whole entry): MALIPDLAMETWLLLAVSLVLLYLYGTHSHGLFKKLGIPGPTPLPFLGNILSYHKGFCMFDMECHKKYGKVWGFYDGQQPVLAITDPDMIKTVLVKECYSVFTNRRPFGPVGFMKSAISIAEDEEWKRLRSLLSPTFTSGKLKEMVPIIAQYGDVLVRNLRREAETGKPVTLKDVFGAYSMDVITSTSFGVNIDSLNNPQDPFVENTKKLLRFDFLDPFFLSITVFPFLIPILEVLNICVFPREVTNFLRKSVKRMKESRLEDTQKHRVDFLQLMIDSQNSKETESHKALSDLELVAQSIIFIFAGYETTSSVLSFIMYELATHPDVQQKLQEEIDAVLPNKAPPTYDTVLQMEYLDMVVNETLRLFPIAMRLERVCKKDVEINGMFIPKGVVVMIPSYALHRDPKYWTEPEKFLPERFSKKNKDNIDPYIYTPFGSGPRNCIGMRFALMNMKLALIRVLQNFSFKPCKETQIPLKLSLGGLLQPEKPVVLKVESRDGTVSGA

[13] = most incubates; limit of detection approximately 1.0 ng/ml
[14] = test system: CYP3A4/5; assay: in vitro; details: human, microsomes, HLM
[15] = target: CYP2D6 (Homo sapiens, UniProt P10635); assay: in vitro; details: recombinant enzyme
Sequence of CYP2D6 (Homo sapiens, UniProt P10635) (P10635 whole entry): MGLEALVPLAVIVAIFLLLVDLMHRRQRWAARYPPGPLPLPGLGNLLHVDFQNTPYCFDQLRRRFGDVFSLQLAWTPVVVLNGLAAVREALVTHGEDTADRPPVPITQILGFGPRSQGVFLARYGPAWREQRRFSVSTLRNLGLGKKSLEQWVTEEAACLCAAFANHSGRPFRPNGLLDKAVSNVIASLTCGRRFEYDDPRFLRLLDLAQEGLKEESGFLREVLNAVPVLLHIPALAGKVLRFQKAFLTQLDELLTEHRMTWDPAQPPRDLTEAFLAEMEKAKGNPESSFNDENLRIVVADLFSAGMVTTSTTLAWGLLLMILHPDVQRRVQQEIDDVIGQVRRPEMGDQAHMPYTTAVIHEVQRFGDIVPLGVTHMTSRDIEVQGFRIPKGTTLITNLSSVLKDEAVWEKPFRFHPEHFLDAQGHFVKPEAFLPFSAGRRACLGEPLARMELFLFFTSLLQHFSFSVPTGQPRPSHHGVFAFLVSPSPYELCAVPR

[16] = Abundance from Immunquantitation
[17] = Abundance from Relative Activity Factor
[18] = % Inhibition of (R)-EDDP production
[19] = % Inhibition of (S)-EDDP production

C=C[C@H]1C[N@@]2CC[C@H]1C[C@@H]2[C@@H](O)c1ccnc2ccc(OC)cc12 [Quinidine, quinidine]
inhibition at 30 min, 10 µM ([1]; 10 µM): < 30%

CC=C1N(C)[C@H](C)CC1(c1ccccc1)c1ccccc1 [(R)-EDDP]
Scaled contribution of CYP to formation of R- and S-EDDP [2, 16]: 0.0% | Scaled contribution of CYP to formation of R- and S-EDDP [2, 17]: 0.0% | Scaled contribution of CYP to formation of R- and S-EDDP [3, 16]: 0.0% | Scaled contribution of CYP to formation of R- and S-EDDP [3, 17]: 0.0% | Scaled contribution of CYP to formation of R- and S-EDDP [4, 16]: 11.5% | Scaled contribution of CYP to formation of R- and S-EDDP [4, 17]: 17.8% | Scaled contribution of CYP to formation of R- and S-EDDP [5, 16]: 0.4% | Scaled contribution of CYP to formation of R- and S-EDDP [5, 17]: 0.9% | Scaled contribution of CYP to formation of R- and S-EDDP [6, 16]: 1.2% | Scaled contribution of CYP to formation of R- and S-EDDP [6, 17]: 3.7% | Scaled contribution of CYP to formation of R- and S-EDDP [7]: 0.7% | Scaled contribution of CYP to formation of R- and S-EDDP [8, 16]: 14.4% | Scaled contribution of CYP to formation of R- and S-EDDP [8, 17]: 5.8% | Scaled contribution of CYP to formation of R- and S-EDDP [9, 16]: 1.0% | Scaled contribution of CYP to formation of R- and S-EDDP [9, 17]: 0.5% | Scaled contribution of CYP to formation of R- and S-EDDP [10, 16]: 70.7% | Scaled contribution of CYP to formation of R- and S-EDDP [10, 17]: 71.3% | Correlation (r) of EDDP formation with testosterone 6β-hydroxylation catalyzed by CYP3A [11]: 0.82

O=C(c1ccc(OCCN2CCCCC2)cc1)c1c(-c2ccc(O)cc2)sc2cc(O)ccc12 [Raloxifene, raloxifene]
inhibition at 15 min, 30 µM [12, 18]: 96.8% | inhibition at 15 min, 30 µM [12, 19]: 97.2%

CCC1=NC(C)CC1(c1ccccc1)c1ccccc1 (stereo not drawn) [EMDP, 2-ethyl-5-methyl-3,3-diphenylpyraline]
EMDP production from methadone [13]: no EMDP production was noted

NNC(=O)c1ccncc1 [Isoniazid, isoniazid]
inhibition at 15 min, 500 µM [14, 18]: 70.8% | inhibition at 15 min, 500 µM [14, 19]: 51.4% | inhibition at 15 min, 500 µM [12, 18]: 96.9% | inhibition at 15 min, 500 µM [12, 19]: 96.9%

Fc1ccc([C@@H]2CCNC[C@H]2COc2ccc3c(c2)OCO3)cc1 [Paroxetine, paroxetine]
inhibition at 30 min, 1 µM ([15]; % Inhibition of (R)-EDDP production, Supersome): 9.9% | inhibition at 30 min, 1 µM ([15]; % Inhibition of (S)-EDDP production, Supersome): 7.6% | inhibition at 30 min, 1 µM ([15]; Inhibition of Supersome 2D6 activity): < 30% | inhibition at 30 min, 1 µM ([1]; 1 µM): < 30%

CC=C1N(C)[C@@H](C)CC1(c1ccccc1)c1ccccc1 [(S)-EDDP]
Scaled contribution of CYP to formation of R- and S-EDDP [2, 16]: 0.0% | Scaled contribution of CYP to formation of R- and S-EDDP [2, 17]: 0.0% | Scaled contribution of CYP to formation of R- and S-EDDP [3, 16]: 0.0% | Scaled contribution of CYP to formation of R- and S-EDDP [3, 17]: 0.0% | Scaled contribution of CYP to formation of R- and S-EDDP [4, 16]: 18.5% | Scaled contribution of CYP to formation of R- and S-EDDP [4, 17]: 26.7% | Scaled contribution of CYP to formation of R- and S-EDDP [5, 16]: 0.2% | Scaled contribution of CYP to formation of R- and S-EDDP [5, 17]: 0.4% | Scaled contribution of CYP to formation of R- and S-EDDP [6, 16]: 0.4% | Scaled contribution of CYP to formation of R- and S-EDDP [6, 17]: 1.1% | Scaled contribution of CYP to formation of R- and S-EDDP [7]: 0.9% | Scaled contribution of CYP to formation of R- and S-EDDP [8, 16]: 4.4% | Scaled contribution of CYP to formation of R- and S-EDDP [8, 17]: 1.6% | Scaled contribution of CYP to formation of R- and S-EDDP [9, 16]: 1.3% | Scaled contribution of CYP to formation of R- and S-EDDP [9, 17]: 0.6% | Scaled contribution of CYP to formation of R- and S-EDDP [10, 16]: 74.3% | Scaled contribution of CYP to formation of R- and S-EDDP [10, 17]: 69.6% | Correlation (r) of EDDP formation with testosterone 6β-hydroxylation catalyzed by CYP3A [11]: 0.54
